Source: ChEMBL document CHEMBL5055686, “Discovery of AL-GDa62 as a Potential Synthetic Lethal Lead for the Treatment of Gastric Cancer” (J Med Chem, 2021)

Columns and labels:
[1] = Ratio of EC50 for antitumor activity against human spontaneously immortalized wild type MCF10A cells assessed as cell numbers measured after 48 hrs to antitumor activity against human spontaneously immortalized CDH-/- MCF10A cells assessed as cell numbers measured after 48 hrs; assay type: functional, MCF-10A
MCF-10A [2] = test: Antitumor activity against human spontaneously immortalized wild type MCF-10A cells assessed as cell numbers measured after 48 hrs; assay type: functional, cell-based
MCF-10A [3] = test: Antitumor activity against human spontaneously immortalized CDH-/- MCF10A cells assessed as cell numbers measured after 48 hrs; assay type: functional, cell-based
MCF-10A [4] = test: Antitumor activity against human spontaneously immortalized CDH-/- MCF10A cells assessed as cell numbers at 3.13 uM measured after 48 hrs; assay type: functional
[5] = Homo sapiens, MCF-10A, 48 h, read-out: EC50

| SMILES | Ratio EC50 [1] | EC50 (MCF-10A [2]; [5]) [µM] | EC50 (MCF-10A [3]; [5]) [µM] | inhibition at 3.13 µM (MCF-10A [4]) [%] | EC50 (MCF-10A [2]; mcf-10a) | EC50 (MCF-10A [3]; mcf-10a) |
| --- | --- | --- | --- | --- | --- | --- |
| CCCOc1ccc2nc(C)cc(NCc3ccc(F)cc3)c2c1 | 1.5 | 14.3 | 9.8 | – | – | – |
| COc1ccc2nc(C)cc(NCc3cccc4ccccc34)c2c1 | 12 | 50 | 4.1 | – | – | – |
| COc1ccc2nc(C)cc(NCc3ccc(F)cc3C(F)(F)F)c2c1 | 0.8 | 4.2 | 5.2 | – | – | – |
| COc1ccc2nc(COCCCCCCN=[N+]=[N-])cc(NCc3ccc(F)cc3)c2c1.O=C(O)C(F)(F)F | 1.1 | 8.9 | 8.4 | – | – | – |
| COc1ccc2nc(CO)cc(NCc3ccc(F)cc3)c2c1 | 1.5 | 31 | 20.8 | 10 | – | – |
| Cc1cc(NCc2ccc(F)cc2)c2cc(OCCCCCCO)ccc2n1 | 1.4 | 11.3 | 8.1 | – | – | – |
| COc1cccc(CNc2cc(C)nc3ccc(OC)cc23)c1 | 1.3 | 12.5 | 9.7 | – | – | – |
| COc1ccc2nc(C)cc(NCc3ccc(F)c(F)c3)c2c1 | 1.3 | 12 | 9.1 | – | – | – |
| COc1ccc2nc(C)cc(NCc3c(F)cccc3F)c2c1 | 1.3 | 13.6 | 13.6 | – | – | – |
| CCCCCCCCOc1ccc2nc(C)cc(NCc3ccc(F)cc3)c2c1 | 1.1 | 2.2 | 1.8 | – | – | – |
| COc1ccc2nc(C)cc(NCC3CCCN(C)C3)c2c1 (stereo not given) | – | 5.8 | 6.4 | – | – | – |
| Cc1cc(NCc2ccc(F)cc2)c2cc(OCCCCCCN=[N+]=[N-])ccc2n1 | 1 | 4 | 4.1 | – | – | – |
| COc1ccc2nc(C)cc(NCc3ccccc3F)c2c1 | 1.2 | 17 | 14 | – | – | – |
| COc1ccc2nc(C)cc(NCc3cccc(OC(F)F)c3)c2c1 | 1.3 | 14.3 | 10.3 | – | – | – |
| COc1ccc2c(NCc3ccc(F)cc3)cc(C)nc2c1 | 1.6 | 15.9 | 10.2 | 10 | – | – |
| COc1ccc2nc(C)cc(NCc3ccc(OC(F)F)cc3)c2c1 | 1.4 | 14.7 | 10.4 | – | – | – |
| COc1ccc2nc(C)cc(NCc3ccc(C(F)(F)F)cc3)c2c1 | 1.4 | 7.6 | 7.6 | – | – | – |
| COc1ccc2nc(C)cc(NCc3cccc(C(F)(F)F)c3)c2c1 | 1 | 8 | 7.2 | – | – | – |
| COc1cc2c(NC3CCN(C)CC3)cc(-c3ccc(C)o3)nc2cc1OCCCN1CCCC1 | – | 0.5 | 0.2 | – | – | – |
| COc1ccc2nc(C)cc(NCc3ccc(C(C)(C)C)cc3)c2c1 | 1 | 7 | 6.9 | – | – | – |
| COc1ccc2nc(C)cc(NCc3ccc(N(C)C)cc3)c2c1 | 1.3 | 20 | 15.1 | – | – | – |

| SMILES | Ratio EC50 [1] | EC50 (MCF-10A [2]; [5]) [µM] | EC50 (MCF-10A [3]; [5]) [µM] | inhibition at 3.13 µM (MCF-10A [4]) [%] | EC50 (MCF-10A [2]; mcf-10a) | EC50 (MCF-10A [3]; mcf-10a) |
| --- | --- | --- | --- | --- | --- | --- |
| COc1ccc2nc(C)cc(SCc3ccccc3)c2c1 | 1.2 | 37.1 | 30.6 | – | – | – |
| COc1ccc2nc(C)cc(Nc3ccc(F)cc3)c2c1 | 1.1 | 29.8 | 28 | – | – | – |
| COc1ccc2nc(C)cc(NCC[C@@H]3CNC[C@H]3O)c2c1.O=C(O)C(F)(F)F | – | – | – | – | Nd(Toxic) | Nd(Toxic) |
| COc1ccc2nc(C)cc(NCc3cccc(C#N)c3)c2c1 | 1.3 | 17.4 | 13.4 | – | – | – |
| COc1cc2c(NCc3ccc(F)cc3)cc(C)nc2cc1OCCCN1CCCC1 | 1.1 | 2.1 | 1.9 | – | – | – |
| CCCCCCOc1ccc2nc(C)cc(NCc3ccc(F)cc3)c2c1 | 1 | 9.1 | 8.8 | – | – | – |
| COc1ccc2nc(C)cc(NCc3cc(F)cc(F)c3)c2c1 | 1.1 | 18.1 | 13.3 | – | – | – |
| COc1ccc2nccc(NCc3ccc(F)cc3)c2c1 | 1.2 | 16.4 | 13.3 | – | – | – |
| COc1ccc2nc(C)cc(NCc3ccc(F)cc3)c2c1 | 1.5 | 12.2 | 8.2 | – | – | – |
| COc1cccc(CNc2cc(C)nc3ccc(OCCCN4CCCC4)cc23)c1 | 1.2 | 3.6 | 3.6 | – | – | – |
| CCCCCCCOc1cc(OC)cc2c(NCc3ccc(F)cc3)cc(C)nc12 | 1.2 | 3.3 | 2.7 | – | – | – |
| COc1ccc2nc(CO)cc(NC3CCN(C)CC3)c2c1 | 0.9 | 30.1 | 32.3 | – | – | – |
| COc1ccc2nc(C)cc(NCc3ccncc3)c2c1 | 1 | 41.6 | 40.9 | – | – | – |
| COc1ccc2nc(C)cc(NCc3cccc(F)c3)c2c1 | 1.3 | 14.7 | 11.3 | – | – | – |
| COc1ccc2nc(C)cc(NCc3ccc(F)cc3F)c2c1 | 1.3 | 15 | 11.6 | – | – | – |
| COc1ccc2nc(C)cc(Nc3ccccc3)c2c1 | 0.9 | 15.9 | 17.6 | – | – | – |
| COc1ccc(CNc2cc(C)nc3ccc(OC)cc23)cc1 | 1.4 | 9.7 | 7 | – | – | – |
| COc1ccc2nc(C)cc(NCc3c(F)cccc3C(F)(F)F)c2c1 | 1 | 14 | 14.2 | – | – | – |
| CCCCCCCOc1cc2nc(C)cc(NCc3ccc(F)cc3)c2cc1OC | – | 2.2 | 1.7 | – | – | – |
| Cc1cc(NCc2cccc(C#N)c2)c2cc(OCCCN3CCCC3)ccc2n1 | 1.2 | 10.3 | 8.5 | – | – | – |
| COc1ccc2nc(C)cc(NCc3ccc(C)cc3)c2c1 | 1.2 | 22.4 | 18.8 | – | – | – |

| SMILES | Ratio EC50 [1] | EC50 (MCF-10A [2]; [5]) [µM] | EC50 (MCF-10A [3]; [5]) [µM] | inhibition at 3.13 µM (MCF-10A [4]) [%] | EC50 (MCF-10A [2]; mcf-10a) | EC50 (MCF-10A [3]; mcf-10a) |
| --- | --- | --- | --- | --- | --- | --- |
| COc1ccc2nc(-c3ccc(C)o3)cc(NC3CCN(C)CC3)c2c1 | 0.8 | 0.8 | 1.1 | – | – | – |
| COc1ccc2nc(C)cc(NC[C@H]3NC[C@H](O)[C@@H]3O)c2c1.O=C(O)C(F)(F)F | – | – | – | – | Nd(Toxic) | Nd(Toxic) |
| COc1ccc2nc(C)cc(SCc3ccc(F)cc3)c2c1 | 1.2 | 50.5 | 41 | – | – | – |
| COc1ccc2nc(C)cc(NCc3cccc(-c4ccccc4)c3)c2c1 | 1.1 | 3.1 | 2.8 | – | – | – |
| Cc1cc(NCc2ccc(F)cc2)c2ccccc2n1 | 1.3 | 20.1 | 15.4 | – | – | – |
| COc1cc2c(NCc3ccc(F)cc3)cc(-c3ccc(C)o3)nc2cc1OCCCN1CCCC1 | 1.1 | 2.1 | 1.8 | – | – | – |
| COc1ccc2nc(C)cc(NCc3ccc(F)c(C(F)(F)F)c3)c2c1 | 1 | 14.3 | 11.3 | – | – | – |
| COc1ccc2nc(C)cc(NCc3cccnc3)c2c1 | 1.1 | 49.3 | 44.8 | – | – | – |
| COc1ccc2nc(C)cc(NCc3ccc(-c4ccccc4)cc3)c2c1 | 1 | 2.7 | 2.8 | – | – | – |
| CCCCCCCCCCOc1ccc2nc(C)cc(NCc3ccc(F)cc3)c2c1 | 1 | 2 | 1.9 | – | – | – |
| COc1ccc2nc(C)cc(NC3CCN(C)CC3)c2c1 | 0.9 | 7.1 | 7.8 | – | – | – |
| Cc1cc(NC2CCN(C)CC2)c2cc(OCCCN3CCCC3)ccc2n1 | 0.9 | 11.4 | 13.2 | – | – | – |
| COc1ccc2nc(-c3ccc(C)o3)cc(NCc3ccc(F)cc3)c2c1 | 1.4 | 11.1 | 8.3 | – | – | – |
| COc1ccc2nc(C)cc(NCc3cccc(N(C)C)c3)c2c1 | 1 | 14 | 14 | – | – | – |
| COc1ccc2nc(C)cc(NCc3ccccc3)c2c1 | 1.1 | 28.6 | 25.9 | – | – | – |
| COc1ccc2nc(C)cc(NCc3ccccc3OC)c2c1 | 1.2 | 29.5 | 25.2 | – | – | – |
| COc1ccc2nc(C)cc(NCc3ccc(OC)c(F)c3)c2c1 | 1.1 | 10.3 | 9 | – | – | – |
| COc1cc2c(NC3CCN(C)CC3)cc(C)nc2cc1OCCCN1CCCC1 | 1 | 39.2 | 41.1 | – | – | – |
| COc1ccc2nc(C)cc(NCc3ccccc3CO)c2c1 | 1.1 | 25.9 | 22.9 | – | – | – |
| COc1ccc2nc(C)cc(NCc3ccc(F)c(OC)c3)c2c1 | – | 12.9 | 9.5 | – | – | – |
| COc1ccc2nc(C)cc(NCc3cccc(CO)c3)c2c1 | 1.4 | 24.7 | 17.1 | – | – | – |
